Data on five compounds can be found in publication PMC12291762 (Antioxidants, 2025).

For one assay, the target named is T1, COX-1 (Ovis aries, UniProt P05979).
T1 sequence (P05979 25-600): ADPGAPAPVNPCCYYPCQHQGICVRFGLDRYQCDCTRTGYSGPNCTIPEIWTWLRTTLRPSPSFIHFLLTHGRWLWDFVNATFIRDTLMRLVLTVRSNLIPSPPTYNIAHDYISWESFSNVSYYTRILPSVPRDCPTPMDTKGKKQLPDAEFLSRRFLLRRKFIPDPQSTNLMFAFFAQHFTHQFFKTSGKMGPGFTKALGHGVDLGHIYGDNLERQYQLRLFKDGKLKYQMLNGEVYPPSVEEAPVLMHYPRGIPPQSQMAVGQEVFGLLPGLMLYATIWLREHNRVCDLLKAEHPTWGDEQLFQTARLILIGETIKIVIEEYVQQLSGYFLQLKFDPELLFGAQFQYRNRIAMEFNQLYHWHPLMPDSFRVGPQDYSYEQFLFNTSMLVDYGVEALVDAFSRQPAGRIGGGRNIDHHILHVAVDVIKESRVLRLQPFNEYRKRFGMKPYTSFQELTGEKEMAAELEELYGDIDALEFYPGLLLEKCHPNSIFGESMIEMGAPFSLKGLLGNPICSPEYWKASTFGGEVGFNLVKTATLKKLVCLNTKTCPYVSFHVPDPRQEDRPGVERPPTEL
The experiment in a line: Fluorometric COX-1 inhibitor screening kit. It counts as biochemical. Also noted: purchased Abcam ab204698. The conditions noted are these: mean ± standard error, three independent measurements. As for the experimental part: The inhibitory activity of the tested compounds against COX-1 and COX-2 isoforms was assessed using fluorometric cyclooxygenase inhibitor screening kits (Catalog Numbers ab204698 and ab283401, respectively; Abcam, Cambridge, UK). These assays detect the formation of prostaglandin G2, a product of COX enzymatic activity, via fluorometric measurement.
Stock solutions of the test compounds were prepared at a concentration of 5 mM in DMSO and subsequently diluted with the same solvent to obtain the test solutions. For the assay preparation, 2 μL of each test solution was diluted with 8 μL of COX assay buffer. The solvent control (SC) consisted of 2 μL of DMSO and 8 μL of assay buffer, while the enzyme control (EC) contained 10 μL of assay buffer alone. Sample wells (S) received 10 μL of the diluted test solutions. All other steps were in accordance with the manufacturer’s protocol and the previously published article. […] The percentage of inhibition was calculated as follows:(3) % Relative Inhibition=Slope of EC−Slope of S/Slope of EC×100
Fluorescence measurements were conducted on a BioTek Synergy LX multi-mode reader (Winooski, VT, USA).

Assay [1] concerns local oxidative stress parameters. The experiment in a line: Local redox state (edema-affected paw tissue homogenate) 24 h after carrageenan. It counts as in vivo, Wistar albino rats. The following applies: inflamed paw tissue; for Local nitrites level (reduction, p < 0.05): comparator not given. As for the experimental part:
Following 24 h of carrageenan-induced paw edema inflammation model and intraperitoneal anesthesia induced by ketamine/xylazine (100/10 mg/kg of BW), the animals were sacrificed, while whole-blood samples and edema-affected paw tissues were isolated. After centrifugation of whole blood, plasma and erythrocyte lysate samples were separated for further examination of the applied compounds’ effects on the systemic redox balance state. Pro-oxidative markers including superoxide anion radical (O2∙^−), hydrogen peroxide (H2O2) nitrites (NO2^−), and index of lipid peroxidation measured as thiobarbituric acid (TBA) reactive substances (TBARS) were determined from plasma samples, while the antioxidant capacity, including superoxide dismutase (SOD) and catalase (CAT) activity, as well as the reduced glutathione (GSH) level were examined in erythrocyte lysate samples [46]. […] Edema-affected paw tissue samples were weighed (100 mg) and homogenized (OmniPrep™ multi-sample homogenizer, Omni International, Kennesaw, GA, USA) in 900 µL phosphate buffer on ice (pH = 7.4), and centrifuged at 12,000 rpm for 20 min. These supernatant samples were used for the determination of the aforementioned pro-oxidative and antioxidative parameters levels. All oxidative stress analyses were performed spectrophotometrically using a Shimadzu UV 1800 spectrophotometer (Kyoto, Japan).
Determination of the O2∙^− level was conducted by adding 950 µL of a Nitro Blue Tetrazolium (NBT) mixture with TRIS buffer in 50 µL of sample, measured at the 550 nm wavelength. The level of H2O2 was determined during the oxidation of phenol red by H2O2, which was catalyzed with horseradish peroxidase and measured at the 610 nm wavelength. Indirect measurement of nitrites was performed by the precipitation of samples with 30% sulfo-salicylic acid, followed by vortexing and centrifugation at 3000 rpm for 15 min. The equal volumes of isolated supernatant and Griess’ reagent (containing 1% sulfanilamide in 5% phosphoric acid/0.1% naphthalene ethylenediamine-dihydrochloride) were incubated for 10 min and measured at the 550 nm wavelength. The TBARS concentration was determined by adding 400 µL of sample to 200 µL of TBA in 0.05 M NaOH, followed by 15 min incubation at 100 °C. Measurement was performed at the 530 nm wavelength.
The epinephrine method was used for SOD determination. By adding 100 µL of sample, the same volume of epinephrine, and 1000 µL of carbonate buffer, the measurement was performed at the 470 nm wavelength. The determination of CAT activity was based on the preparation of a mixture containing 100 µL of sample, 50 µL of catalase buffer, and 1000 µL of 10 mM H2O2, which was measured at the 230 nm wavelength.

SMILES strings stand for the structures. Some results are limits rather than exact numbers.

Regarding `C[C@H](C(=O)N[C@@H](Cc1ccccc1)C(=O)O)c1cccc(C(=O)c2ccccc2)c1` [Compound 3, ((S)-2-(3-benzoylphenyl)propanoyl)-L-phenylalanine], the IC50 at COX-1 was more than 100 µM.
For the compound `C[C@H](C(=O)NCC(=O)O)c1cccc(C(=O)c2ccccc2)c1` [Compound 1, (S)-(2-(3-benzoylphenyl)propanoyl)glycine], at COX-1, the 50% inhibitory concentration (IC50) is more than 100 µM.
Turning to `C[C@H](NC(=O)[C@@H](C)c1cccc(C(=O)c2ccccc2)c1)C(=O)O` [Compound 2, ((S)-2-(3-benzoylphenyl)propanoyl)-L-alanine], in assay [1], the “Local SOD activity compared to Dex rats” value is “increase the SOD activity”, the “Local SOD activity compared to untreated (negative control) rats” value was “increase the SOD activity”, the “Local TBARS level compared to Dex group” value was “no statistical differences” and the “Local TBARS level compared to Sol rats” value is on record as “reduce the TBARS level”. In addition, the “Local nitrites level (reduction, p < 0.05)” value in assay [1] is given as “markedly reduced”. In addition, the IC50 on COX-1 was more than 100 µM.
Turning to `C[C@H](C(=O)N[C@@H](Cc1c[nH]c2ccccc12)C(=O)O)c1cccc(C(=O)c2ccccc2)c1` [Compound 4, ((S)-2-(3-benzoylphenyl)propanoyl)-L-tryptophan], the half-inhibitory concentration (IC50) on COX-1 is more than 100 µM.
`C[C@H](C(=O)NCCCC(=O)O)c1cccc(C(=O)c2ccccc2)c1` [Compound 5, (S)-4-(2-(3-benzoylphenyl)propanamido)butanoic acid]: in assay [1], the “Local nitrites level (reduction, p < 0.05)” value is on record as “markedly reduced”. Further, the 50% inhibitory concentration (IC50) on COX-1 was more than 100 µM.

The term IC50 denotes the concentration needed to halve the response being measured.
